Where two headings read alike, the source gives them in different places.
Key:
[1] = test system: human erythroid progenitors (CFU-E, BFU-E); assay: Colony forming cell assay, human erythroid progenitor (CFU-E, BFU-E) proliferation; assay type: cell-based; conditions: 336 h, single agent, 14 days, CFU-E and BFU-E
Description: (§1) Clonogenic progenitors of human erythroid (CFU-E, BFU-E), granulocyte-monocyte (CFU-GM), and multipotential (CFU-GEMM) lineages were assessed in a semi-solid methylcellulose-based media formulation containing rhIL-3 (10 ng/mL), rhGM-SCF (10 ng/mL), rhSCF (50 ng/mL), and Epo (3 U/mL).
(§2) In addition, 5-FU was evaluated at 1.0, 0.1 and 0.01 μg/mL as a positive control for toxicity.
(§3) Normal human bone marrow light density cells (lot #0210901), derived from normal bone marrow, (Lonza, Maryland) and qualified at ReachBio, were stored at −152° C. until required for the assay. On the day of the experiment, the cells were thawed rapidly, diluted in 10 mL of Iscove's modified Dulbecco's medium containing 10% fetal bovine serum (IMDM+10% FBS) and washed by centrifugation (approximately 1500 r.p.m. for 10 minutes at room temperature). The supernatant was discarded and the cell pellets were resuspended in a known volume of IMDM+10% FBS. A cell count (3% glacial acetic acid) and viability assessment (trypan blue exclusion test) was performed for the bone marrow sample.
Clonogenic progenitors of human megakaryocyte (CFU-Mk) were assessed in a collagen-based media formulation containing rhIL-3 (10 ng/mL), rhIL-6 (10 ng/mL), and Tpo (50 ng/mL). Clonogenic progenitors of the human erythroid (CFU-E and BFU-E), myeloid (CFU-GM), and megakaryocyte (CFU-Mk) lineages were set up in the media formulations described above. Individually, the test compounds were added to the medium to give the final desired concentrations (10, 3.33, 1, 0.333, 0.1, 0.0333, 0.01 and 0.00333 μM). […]
Human myeloid and erythroid progenitor assays were initiated at 1.2×10^4 cells per culture (lot #0210921) and the human megakaryocyte assays were initiated at 1.2×10^5 cells per culture (lot #0210921). Following 14 days in culture, erythroid and myeloid colonies were assessed microscopically in situ and scored by trained personnel. […] The colonies were assessed microscopically and scored by trained personnel and divided into the following categories based on size: CFU-Mk (3-20), CFU-Mk (21-49), and CFU-Mk (≥50).
Statistical analysis: The mean±standard deviation of three replicate cultures was calculated for both erythroid and myeloid progenitors. […]
(§4) Erythroid (CFU-E and BFU-E) and myeloid (CFU-GM) colony enumeration was performed by trained personnel. In addition, the distribution of colony types as well as general colony and cellular morphology was analyzed. The variance in colony number detected in replicate cultures was representative of the historical coefficient of variation for colony enumeration using these types of assays. The number and distribution of colonies detected in the solvent control (0.1% DMSO for single agents) was no different from the standard control (containing no compound and no DMSO). […]

[2] = test system: MF patients; conditions: cited from earlier work
[3] = test system: R/R MF; conditions: cited from earlier work
[4] = test system: human myeloid progenitors (CFU-GM); assay: Colony forming cell assay, human myeloid (granulocyte-monocyte, CFU-GM) progenitor proliferation; assay type: cell-based; conditions: single agent
Description: as §1, §2, §3
(§5) Clonogenic progenitors of human megakaryocyte (CFU-Mk) were assessed in a collagen-based media formulation containing rhIL-3 (10 ng/mL), rhIL-6 (10 ng/mL), and Tpo (50 ng/mL). Clonogenic progenitors of the human erythroid (CFU-E and BFU-E), myeloid (CFU-GM), and megakaryocyte (CFU-Mk) lineages were set up in the media formulations described above. Individually, the test compounds were added to the medium to give the final desired concentrations (10, 3.33, 1, 0.333, 0.1, 0.0333, 0.01 and 0.00333 μM). […] Solvent control cultures (containing no compound but 0.1% DMSO) as well as standard controls (containing no compound and no DMSO) were also initiated. Once introduced into the matrices, the tubes were vortexed to ensure an equal distribution throughout.
(§6) Human myeloid and erythroid progenitor assays were initiated at 1.2×10^4 cells per culture (lot #0210921) and the human megakaryocyte assays were initiated at 1.2×10^5 cells per culture (lot #0210921). Following 14 days in culture, erythroid and myeloid colonies were assessed microscopically in situ and scored by trained personnel. The colonies were divided into the following categories based on size and morphology: CFU-E, BFU-E, CFU-GM, and CFU-GEMM. The human megakaryocyte cultures were transferred from the 35 mm dishes to labeled glass slides, fixed with methanol/acetone fixative, and then stained with anti-human CD41 antibody and an alkaline phosphate detection system according to manufacturers' instructions. The colonies were assessed microscopically and scored by trained personnel and divided into the following categories based on size: CFU-Mk (3-20), CFU-Mk (21-49), and CFU-Mk (≥50).
(§7) Statistical analysis: The mean±standard deviation of three replicate cultures was calculated for both erythroid and myeloid progenitors. Two-tailed standard t-tests were performed to assess if there was a difference in the number of colonies generated between solvent control and treated cultures. Due to the potential subjectivity of colony enumeration, a p value of less than 0.01 is deemed significant. To calculate the concentration of 50% inhibition of colony growth (IC50) for each compound, a dose response curve was generated plotting the log of the compound concentration versus the percentage of control colony growth using GraphPad Prism 9 software.
as §4

[5] = test system: human megakaryocyte progenitors (CFU-Mk); assay: Colony forming cell assay, human megakaryocyte progenitor (CFU-Mk) proliferation; assay type: cell-based; conditions: Homo sapiens; single agent; read-out: IC50, total CFU-Mk (megakaryocyte progenitor proliferation)
Description: as §2, §3, §5, §6, §7
Other than the test compounds being combined, the only change from the method in Example 1 was a 0.2% DMSO solvent control instead of 0.1% DMSO. The results are provided in FIGS. 2A-4C (FIGS. 2A-2C are human megakaryocytes (CFU-MK), FIGS. 3A-3C are human erythroid (CFU-E, BFU-E), and FIGS. 4A-4C are human granulocyte-monocyte (CFU-GM).

[6] = test system: PIM1; conditions: read-out: Preclinical IC50, PIM1; cited from earlier work
[7] = test system: PIM2; conditions: read-out: Preclinical IC50, PIM2; cited from earlier work
[8] = test system: PIM3; conditions: read-out: Preclinical IC50, PIM3; cited from earlier work
[9] = test system: R/R AML; conditions: R/R AML (n = 30); Other (n = 9); cited from earlier work
[10] = MOMENTUM, monotherapy 200 mg QD, N = 195
[11] = ≥50 × 10^9/L PLT, regimen RUX+Paraclisib
[12] = JAKARTA, monotherapy 400 mg QD, N = 96

SMILES: N#CCNC(=O)c1ccc(-c2ccnc(Nc3ccc(N4CCOCC4)cc3)n2)cc1 [momelotinib]
- IC50 [1]: 1.6 µM
- TEAE Anemia, All Gr [2, 10]: 99%
- TEAE Anemia, ≥3 Gr [2, 10]: 61%
- TEAE Neutropenia, All Gr [2, 10]: 29%
- TEAE Neutropenia, ≥3 Gr [2, 10]: 12%
- TEAE Thrombocytopenia, All Gr [2, 10]: 76%
- TEAE Thrombocytopenia, ≥3 Gr [2, 10]: 28%
- SVR35 at Week 24 ([3]; ≥25 × 10^9/L PLT, monotherapy): 23%
- TSS50 at Week 24 ([3]; ≥25 × 10^9/L PLT, monotherapy): 25%
- IC50 ([4]; Homo sapiens, 336 h, 14 days, CFU-GM): 0.26 µM
- concentrations at which myeloid progenitor proliferation was (significantly, additionally) inhibited ([4]; vs 0.1% DMSO solvent control, p<0.01): 1.0 µM
- IC50 [5]: 0.3 µM

SMILES: Cc1noc2c1-c1ccccc1C(c1ccc(Cl)cc1)=N[C@H]2CC(N)=O [Pelabresib, pelabresib]
- SVR35 at Week 24 ([3]; ≥75 × 10^9/L PLT, monotherapy): 11%
- TSS50 at Week 24 ([3]; ≥75 × 10^9/L PLT, monotherapy): 28%

SMILES: C[C@H]1CN(c2c(NC(=O)c3ccc(F)c(-c4c(F)cccc4F)n3)cnc3c2CC[C@H]3O)C[C@@H](N)[C@@H]1O [INCB053914]
- IC50 [6]: 0.00024 µM
- IC50 [7]: 0.03 µM
- IC50 [8]: 0.00012 µM
- Hem AE, G3+ anemia [9]: G3+ Anemia (18%)
- Hem AE, G3+ thrombocytopenia [9]: (13%)
- Non-hem AE, ALT/AST increased [9]: (36%),
- Non-hem AE, diarrhea [9]: diarrhea (21%), rash
- Non-hem AE, nausea [9]: nausea (23%),
- Non-hem AE, rash [9]: (15%)

SMILES: CCOc1c([C@H](C)n2nc(C)c3c(N)ncnc32)cc(Cl)c(F)c1[C@@H]1CNC(=O)C1 [Parsaclisib, parsaclisib]
- SVR35 at Week 24 [3, 11]: 3%
- TSS50 at Week 24 [3, 11]: 11%

SMILES: CC1(C)CCC(c2ccc(Cl)cc2)=C(CN2CCN(c3ccc(C(=O)NS(=O)(=O)c4ccc(N[C@H](CCN5CCOCC5)CSc5ccccc5)c(S(=O)(=O)C(F)(F)F)c4)cc3)CC2)C1 [Navitoclax, navitoclax]
- SVR35 at Week 24 ([3]; ≥100 × 10^9/L PLT, monotherapy): 7%
- TSS50 at Week 24 ([3]; ≥100 × 10^9/L PLT, monotherapy): 10%

SMILES: Cc1cnc(Nc2ccc(OCCN3CCCC3)cc2)nc1Nc1cccc(S(=O)(=O)NC(C)(C)C)c1 [Fedratinib, fedratinib]
- TEAE Anemia, All Gr [2, 12]: 99%
- TEAE Anemia, ≥3 Gr [2, 12]: 43%
- TEAE Neutropenia, All Gr [2, 12]: 28%
- TEAE Neutropenia, ≥3 Gr [2, 12]: 8%
- TEAE Thrombocytopenia, All Gr [2, 12]: 63%
- TEAE Thrombocytopenia, ≥3 Gr [2, 12]: 17%
